{"source": "patent US20170209445A1", "about": "“KINASE INHIBITORS” (Respivert Limited, priority 2014, published 2017)"}
{"test_system": "PBMCs", "assay": "LPS-induced IL-8 release in PBMC cells", "format": "cell-based", "details": "Homo sapiens, LPS-stimulated PBMCs, read-out: IC50 Values for Inhibition of Cytokine Release PBMCs IL-8", "experimental": "Peripheral blood mononuclear cells (PBMCs) from healthy subjects are separated from whole blood using a density gradient (Lymphoprep, Axis-Shield Healthcare). The PBMCs are seeded in 96 well plates and treated with compounds at the desired concentration for 2 hours before addition of 1 ng/mL LPS (Escherichia Coli 0111:B4 from Sigma Aldrich) for 24 hours under normal tissue culture conditions (37° C., 5% CO2). The supernatant is harvested for determination of IL-8 and TNFα concentrations by sandwich ELISA (Duo-set, R&D systems) and read on the fluorescence microplate reader (Varioskan® Flash, ThermoFisher Scientific).", "units": {"IC50": "nM"}}
{"smiles": "COc1cc(Nc2ncc3cc(-c4cc(C(=O)Nc5cc(C(C)(C)C)cc(NS(C)(=O)=O)c5OC)ccc4C)ccc3n2)ccc1C(=O)NCCC1CCN(C)CC1", "note": "[14(aa), 4-((6-(5-((5-(tert-Butyl)-2-methoxy-3-(methylsulfonamido)phenyl)carbamoyl)-2-methyl-phenyl)quinazolin-2-yl)amino)-2-methoxy-N-(2-(1-methylpiperidin-4-yl)ethyl)benzamide]", "IC50": 9.5}
{"smiles": "COc1c(NC(=O)c2ccc(C)c(-c3ccc4nc(Nc5cccc(P(C)(C)=O)c5)ncc4c3)c2)cc(C(C)(C)C)cc1NS(C)(=O)=O", "note": "[14(h), N-(5-(tert-Butyl)-2-methoxy-3-(methylsulfonamido)phenyl)-3-(2-((3-(dimethylphosphoryl)phenyl)amino)quinazolin-6-yl)-4-methylbenzamide]", "IC50": 9.4}
{"smiles": "COc1cc(Nc2ncc3cc(-c4cc(C(=O)Nc5cc(C(C)(C)C)cc(NS(C)(=O)=O)c5OC)ccc4C)ccc3n2)cc(S(=O)(=O)N(C)CCN2CCOCC2)c1", "note": "[14(c), N-(5-(tert-Butyl)-2-methoxy-3-(methylsulfonamido)phenyl)-3-(2-((3-methoxy-5-(N-methyl-N-(2-morpholinoethyl)sulfamoyl)phenyl)amino)quinazolin-6-yl)-4-methylbenzamide]", "IC50": 18.6}
{"smiles": "COCCOCCOCCNC(=O)c1ccc(Nc2ncc3cc(-c4cc(C(=O)Nc5cc(C(C)(C)C)cc(NS(C)(=O)=O)c5OC)ccc4C)ccc3n2)cc1OC", "note": "[14(p), 4-((6-(5-((5-(tert-Butyl)-2-methoxy-3-(methylsulfonamido)phenyl)carbamoyl)-2-methylphenyl)quinazolin-2-yl)amino)-2-methoxy-N-(2-(2-(2-methoxyethoxy)ethoxy)ethyl)benzamide]", "IC50": 7.5}
{"smiles": "COc1c(NC(=O)c2ccc(C)c(-c3ccc4nc(Nc5cccc(OS(C)(=O)=O)c5)ncc4c3)c2)cc(C(C)(C)C)cc1NS(C)(=O)=O", "note": "[14(a), 3-((6-(5-((5-(tert-Butyl)-2-methoxy-3-(methylsulfonamido)phenyl)carbamoyl)-2-methylphenyl)quinazolin-2-yl)amino)phenyl methanesulfonate]", "IC50": 31.1}
{"smiles": "COc1cc(Nc2ncc3cc(-c4cc(C(=O)Nc5cc(C(C)(C)C)cc(NS(C)(=O)=O)c5OC)ccc4C)ccc3n2)ccc1C(=O)NCCOCCOCCO", "note": "[14(v), 4-((6-(5-((5-(tert-Butyl)-2-methoxy-3-(methylsulfonamido)phenyl)carbamoyl)-2-methylphenyl)quinazolin-2-yl)amino)-N-(2-(2-(2-hydroxyethoxy)ethoxy)ethyl)-2-methoxybenzamide]", "IC50": 4.4}
{"smiles": "COCCOCCOCCOc1cc(Nc2ncc3cc(-c4cc(C(=O)Nc5cc(C(C)(C)C)cc(NS(C)(=O)=O)c5OC)ccc4C)ccc3n2)cc(OC(F)(F)F)c1", "note": "[14(r), N-(5-(tert-Butyl)-2-methoxy-3-(methylsulfonamido)phenyl)-3-(2-((3-(2-(2-(2-methoxy-ethoxy)ethoxy)ethoxy)-5-(trifluoromethoxy)phenyl)amino)quinazolin-6-yl)-4-methylbenzamide]", "IC50": 49.1}
{"smiles": "COc1cc(Nc2ncc3cc(-c4cc(C(=O)Nc5cc(C(C)(C)C)cc(NS(C)(=O)=O)c5OC)ccc4C)ccc3n2)ccc1C(=O)NCCc1c[nH]cn1", "note": "[14(af), N-(2-(1H-Imidazol-4-yl)ethyl)-4-((6-(5-((5-(tert-butyl)-2-methoxy-3-(methylsulfonamido)-phenyl)carbamoyl)-2-methylphenyl)quinazolin-2-yl)amino)-2-methoxybenzamide]", "IC50": 13.2}
{"smiles": "COc1cc(Nc2ncc3cc(-c4cc(C(=O)Nc5cc(C(C)(C)C)cc(NS(C)(=O)=O)c5OC)ccc4C)ccc3n2)ccc1C(=O)NCCS(C)(=O)=O", "note": "[14(ad), 4-((6-(5-((5-(tert-Butyl)-2-methoxy-3-(methylsulfonamido)phenyl)carbamoyl)-2-methylphenyl)quinazolin-2-yl)amino)-2-methoxy-N-(2-(methylsulfonyl)ethyl)benzamide]", "IC50": 7}
{"smiles": "COc1c(NC(=O)c2ccc(C)c(-c3ccc4nc(Nc5cccc(N=S(C)(C)=O)c5)ncc4c3)c2)cc(C(C)(C)C)cc1NS(C)(=O)=O", "note": "[14(q), N-(5-(tert-Butyl)-2-methoxy-3-(methylsulfonamido)phenyl)-3-(2-((3-((dimethyl(oxo)-I6-sulfanylidene)amino)phenyl)amino)quinazolin-6-yl)-4-methylbenzamide]", "IC50": 6.1}
{"smiles": "COc1cc(Nc2ncc3cc(-c4cc(C(=O)Nc5cc(C(C)(C)C)cc(NS(C)(=O)=O)c5OC)ccc4C)ccc3n2)ccc1C(=O)NCCN1CCN(C)C(C)(C)C1", "note": "[14(al), 4-((6-(5-((5-(tert-Butyl)-2-methoxy-3-(methylsulfonamido)phenyl)carbamoyl)-2-methyl-phenyl)quinazolin-2-yl)amino)-2-methoxy-N-(2-(3,3,4-trimethylpiperazin-1-yl)ethyl)benzamide]", "IC50": 8.3}
{"smiles": "COc1cc(Nc2ncc3cc(-c4cc(C(=O)Nc5cc(C(C)(C)C)cc(NS(C)(=O)=O)c5OC)ccc4C)ccc3n2)ccc1C(=O)NCCCN1CC[S+]([O-])CC1", "note": "[Example 11, 4-((6-(5-((5-(tert-Butyl)-2-methoxy-3-(methylsulfonamido)phenyl)carbamoyl)-2-methylphenyl)-quinazolin-2-yl)amino)-2-methoxy-N-(3-(1-oxidothiomorpholino)propyl)benzamide]", "IC50": 7.6}
{"smiles": "COc1cc(Nc2ncc3cc(-c4cc(C(=O)Nc5cc(C(C)(C)C)cc(NS(C)(=O)=O)c5OC)ccc4C)ccc3n2)ccc1C(=O)NCCN1CCC(O)CC1", "note": "[14(ah), 4-((6-(5-((5-(tert-Butyl)-2-methoxy-3-(methylsulfonamido)phenyl)carbamoyl)-2-methylphenyl)quinazolin-2-yl)amino)-N-(2-(4-hydroxypiperidin-1-yl)ethyl)-2-methoxybenzamide]", "IC50": 8}
{"smiles": "COc1cc(Nc2ncc3cc(-c4cc(C(=O)Nc5cc(C(C)(C)C)cc(NS(C)(=O)=O)c5OC)ccc4C)ccc3n2)ccc1C(=O)NC1CCS(=O)(=O)CC1", "note": "[14(an), 4-((6-(5-((5-(tert-Butyl)-2-methoxy-3-(methylsulfonamido)phenyl)carbamoyl)-2-methylphenyl)quinazolin-2-yl)amino)-N-(1,1-dioxidotetrahydro-2H-thiopyran-4-yl)-2-methoxybenzamide]", "IC50": 12.3}
{"smiles": "COCCOCCOCCOc1cc(Nc2ncc3cc(-c4cc(C(=O)Nc5cc(C(C)(C)C)cc(NS(C)(=O)=O)c5OC)ccc4C)ccc3n2)cc(C(F)(F)F)c1", "note": "[14(s), N-(5-(tert-Butyl)-2-methoxy-3-(methylsulfonamido)phenyl)-3-(2-((3-(2-(2-(2-methoxyethoxy)ethoxy)ethoxy)-5-(trifluoromethyl)phenyl)amino)quinazolin-6-yl)-4-methylbenzamide]", "IC50": 35.6}
{"smiles": "COc1cc(Nc2ncc3cc(-c4cc(C(=O)Nc5cc(C(C)(C)C)cc(NS(C)(=O)=O)c5OC)ccc4C)ccc3n2)ccc1C(=O)NCCn1ccnc1C", "note": "[14(ae), 4-((6-(5-((5-(tert-Butyl)-2-methoxy-3-(methylsulfonamido)phenyl)carbamoyl)-2-methyl-phenyl)quinazolin-2-yl)amino)-2-methoxy-N-(2-(2-methyl-1H-imidazol-1-yl)ethyl)benzamide]", "IC50": 6.5}
{"smiles": "COc1c(NC(=O)c2ccc(C)c(-c3ccc4nc(Nc5cc(C(=O)NCCN6CCOCC6)cc(C(F)(F)F)c5)ncc4c3)c2)cc(C(C)(C)C)cc1NS(C)(=O)=O", "note": "[14(u), N-(5-(tert-Butyl)-2-methoxy-3-(methylsulfonamido)phenyl)-4-methyl-3-(2-((3-((2-morpholinoethyl)carbamoyl)-5-(trifluoromethyl)phenyl)amino)quinazolin-6-yl)benzamide]", "IC50": 20.2}
{"smiles": "COc1c(NC(=O)c2ccc(C)c(-c3ccc4nc(Nc5cc(C#N)cc(OCCN6CCOCC6)c5)ncc4c3)c2)cc(C(C)(C)C)cc1NS(C)(=O)=O", "note": "[14(b), N-(5-(tert-Butyl)-2-methoxy-3-(methylsulfonamido)phenyl)-3-(2-((3-cyano-5-(2-morpholinoethoxy)phenyl)amino)quinazolin-6-yl)-4-methylbenzamide]", "IC50": 15.2}
{"smiles": "COCCOCCOCCOc1cc(F)cc(Nc2ncc3cc(-c4cc(C(=O)Nc5cc(C(C)(C)C)cc(NS(C)(=O)=O)c5OC)ccc4C)ccc3n2)c1", "note": "[14(l), N-(5-(tert-Butyl)-2-methoxy-3-(methylsulfonamido)phenyl)-3-(2-((3-fluoro-5-(2-(2-(2-methoxyethoxy)ethoxy)ethoxy)phenyl)amino)quinazolin-6-yl)-4-methylbenzamide]", "IC50": 16.6}
{"smiles": "COc1cc(Nc2ncc3cc(-c4cc(C(=O)Nc5cc(C(C)(C)C)cc(NS(C)(=O)=O)c5OC)ccc4C)ccc3n2)ccc1C(=O)NCCN1CCCOCC1", "note": "[14(y), N-(2-(1,4-Oxazepan-4-yl)ethyl)-4-((6-(5-((5-(tert-butyl)-2-methoxy-3-(methylsulfonamido)-phenyl)carbamoyl)-2-methylphenyl)quinazolin-2-yl)amino)-2-methoxybenzamide]", "IC50": 4.6}
{"smiles": "COc1c(NC(=O)c2ccc(C)c(-c3ccc4nc(Nc5ccc(S(C)(=N)=O)cc5)ncc4c3)c2)cc(C(C)(C)C)cc1NS(C)(=O)=O", "note": "(centres unmarked) [14(t), N-(5-(tert-Butyl)-2-methoxy-3-(methylsulfonamido)phenyl)-4-methyl-3-(2-((4-(S-methylsulfonimidoyl)phenyl)amino)quinazolin-6-yl)benzamide]", "IC50": 67.6}
{"smiles": "COc1cc(Nc2ncc3cc(-c4cc(C(=O)Nc5cc(C(C)(C)C)cc(NS(C)(=O)=O)c5OC)ccc4C)ccc3n2)cc(C(=O)O)c1", "note": "[14(o), 3-((6-(5-((5-(tert-Butyl)-2-methoxy-3-(methylsulfonamido)phenyl)carbamoyl)-2-methylphenyl)quinazolin-2-yl)amino)-5-methoxybenzoic acid]", "IC50": 28.4}
{"smiles": "COc1cc(Nc2ncc3cc(-c4cc(C(=O)Nc5cc(C(C)(C)C)cc(NS(C)(=O)=O)c5OC)ccc4C)ccc3n2)cc(S(=O)(=O)N(C)CCCN2CCOCC2)c1", "note": "[14(e), N-(5-(tert-Butyl)-2-methoxy-3-(methylsulfonamido)phenyl)-3-(2-((3-methoxy-5-(N-methyl-N-(3-morpholinopropyl)sulfamoyl)phenyl)amino)quinazolin-6-yl)-4-methylbenzamide]", "IC50": 20.6}
